Results published in PubChem BioAssay (NCI).
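96-well plates; 48 h exposure; 5 concentrations. Endpoints by linear interpolation between flanking doses. Not reached: highest tested concentration assigned. GI50: concentration for 50% inhibition of growth. TGI is the concentration that stops growth completely.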

Columns and labels:
Assay in all cases: NCI anticancer screen, dose series, 48 h
HCT-116 colon = system: HCT-116 colon
EKVX NSCLC = system: EKVX NSCLC
SF-295 CNS = system: SF-295 CNS
SK-MEL-28 melanoma = system: SK-MEL-28 melanoma
SF-539 CNS = system: SF-539 CNS
UACC-62 melanoma = system: UACC-62 melanoma
SK-OV-3 ovarian = system: SK-OV-3 ovarian
TK-10 renal = system: TK-10 renal
RPMI-8226 leukemia = system: RPMI-8226 leukemia
SR leukemia = system: SR leukemia

## c1ccc2c(c1)n1nnnc1c1nnnn21
HCT-116 colon
  TGI: > 100 µM
EKVX NSCLC
  TGI: > 100 µM
SF-295 CNS
  TGI: > 100 µM
SK-MEL-28 melanoma
  TGI: > 100 µM
SF-539 CNS
  TGI: > 100 µM
UACC-62 melanoma
  TGI: > 100 µM
SK-OV-3 ovarian
  TGI: > 100 µM
TK-10 renal
  TGI: > 100 µM
RPMI-8226 leukemia
  TGI: > 100 µM

## CCOC(=O)c1cnc2c(ccc3ncccc32)c1OCC
HCT-116 colon
  TGI: > 100 µM
SR leukemia
  TGI: > 100 µM
EKVX NSCLC
  TGI: > 100 µM
SK-MEL-28 melanoma
  TGI: > 100 µM
SF-539 CNS
  TGI: > 100 µM
UACC-62 melanoma
  TGI: > 100 µM
SK-OV-3 ovarian
  TGI: > 100 µM
TK-10 renal
  TGI: > 100 µM

## O=C(N[C@H]1CC2(C=C(I)C(=O)C(I)=C2)OC1=O)OCc1ccccc1
HCT-116 colon
  TGI: 29.6 µM
EKVX NSCLC
  TGI: 27.3 µM
SF-295 CNS
  TGI: 37.3 µM
SK-MEL-28 melanoma
  TGI: 33.5 µM
SF-539 CNS
  TGI: 32 µM
UACC-62 melanoma
  TGI: 30.2 µM
SK-OV-3 ovarian
  TGI: > 100 µM
TK-10 renal
  TGI: 32.3 µM
RPMI-8226 leukemia
  TGI: > 100 µM

## O=C1Cc2c([nH]c3ccccc23)-c2cc(Br)ccc2N1
HCT-116 colon
  TGI: > 100 µM
EKVX NSCLC
  TGI: > 100 µM
SF-295 CNS
  TGI: > 100 µM
SK-MEL-28 melanoma
  TGI: > 100 µM
SF-539 CNS
  TGI: > 100 µM
SK-OV-3 ovarian
  TGI: > 100 µM
TK-10 renal
  TGI: > 100 µM
RPMI-8226 leukemia
  TGI: > 100 µM

## CNC(=O)N(CCCCC(NC(C)=O)C(=O)NCc1ccccc1)Cc1ccccc1 (stereo not given)
HCT-116 colon
  TGI: > 100 µM
EKVX NSCLC
  TGI: > 100 µM
SF-295 CNS
  TGI: > 100 µM
SK-MEL-28 melanoma
  TGI: > 100 µM
SF-539 CNS
  TGI: > 100 µM
UACC-62 melanoma
  TGI: > 100 µM
SK-OV-3 ovarian
  TGI: > 100 µM
TK-10 renal
  TGI: > 100 µM
RPMI-8226 leukemia
  TGI: > 100 µM

## COc1ccc(S(=O)(=O)NNS(C)(=O)=O)cc1OC
SR leukemia
  TGI: > 100 µM
EKVX NSCLC
  TGI: > 100 µM
SF-295 CNS
  TGI: > 100 µM
SF-539 CNS
  TGI: > 100 µM
UACC-62 melanoma
  TGI: > 100 µM
TK-10 renal
  TGI: > 100 µM
RPMI-8226 leukemia
  TGI: > 100 µM

## O=S1(=O)CS(=O)(=O)OCCCCCO1
HCT-116 colon
  TGI: > 100 µM
EKVX NSCLC
  TGI: > 100 µM
SK-MEL-28 melanoma
  TGI: > 100 µM
UACC-62 melanoma
  TGI: > 100 µM
SK-OV-3 ovarian
  TGI: > 100 µM
TK-10 renal
  TGI: > 100 µM
RPMI-8226 leukemia
  TGI: > 100 µM

## Cc1ncc([N+](=O)[O-])n1CCOc1ccc(C(=O)/C=C/c2ccc(C(F)(F)F)cc2)cc1
HCT-116 colon
  GI50: 1.65 µM
  TGI: 3.34 µM
SR leukemia
  GI50: 1.97 µM
  TGI: 5.5 µM
SF-295 CNS
  GI50: 3.47 µM
  TGI: 13.8 µM
SK-MEL-28 melanoma
  GI50: 10.2 µM
  TGI: 21.9 µM
SF-539 CNS
  GI50: 1.65 µM
  TGI: 3.07 µM
UACC-62 melanoma
  GI50: 4.73 µM
  TGI: 17.6 µM
SK-OV-3 ovarian
  GI50: 4.13 µM
  TGI: 15.3 µM
RPMI-8226 leukemia
  GI50: 1.91 µM
  TGI: 4.37 µM

## Cc1cc(N(CCC#N)CCC#N)ccc1/C=C1N=C(/C=C\c2ccccc2)N(c2ccc(C(=O)O)cc2)C\1=O
HCT-116 colon
  TGI: > 100 µM
SR leukemia
  TGI: > 100 µM
SF-295 CNS
  TGI: > 100 µM
SK-MEL-28 melanoma
  TGI: > 100 µM
SF-539 CNS
  TGI: > 100 µM
UACC-62 melanoma
  TGI: > 100 µM
SK-OV-3 ovarian
  TGI: > 100 µM
TK-10 renal
  TGI: > 100 µM
RPMI-8226 leukemia
  TGI: > 100 µM

## Cn1cc(C2=C(c3cccc([N+](=O)[O-])c3)C(=O)NC2=O)c2ccccc21
HCT-116 colon
  GI50: 5.5 µM
  TGI: > 25 µM
SR leukemia
  GI50: 7 µM
  TGI: > 25 µM
SF-295 CNS
  GI50: 2.14 µM
  TGI: > 14 µM
SK-MEL-28 melanoma
  GI50: 10.5 µM
  TGI: > 25 µM
SF-539 CNS
  GI50: 6.1 µM
  TGI: > 25 µM
UACC-62 melanoma
  GI50: 6.58 µM
  TGI: 18.1 µM
SK-OV-3 ovarian
  GI50: 6.35 µM
  TGI: > 25 µM
TK-10 renal
  GI50: 12.1 µM
  TGI: > 25 µM
RPMI-8226 leukemia
  GI50: 7.47 µM
  TGI: > 23.2 µM
